Experimental data from US10174156B2, “Hyperbranched polyester with a hydrophobic nucleus for solubilizing poorly soluble active substances” (BASF SE, priority 2009, dated 2019).

Experiment: physchem
Conditions: pH 7, aqueous buffer, thermodynamic from solid
Protocol: 2 g of polymer were weighed into a 50 ml beaker. Subsequently, 0.2 g of active ingredient in each case was weighed into the mixture in order to obtain an oversaturated solution. […] The mixture was then stirred at room temperature with the aid of a magnetic stirrer for 72 h. After a rest time of 1 h, excess (i.e. unsolubilized) active ingredient was removed by filtration. The clear or opaque solution thus obtained was subsequently analyzed for its active ingredient content by means of UV spectroscopy or HPLC.

## Clc1ccccc1C(c1ccccc1)(c1ccccc1)n1ccnc1 [Clotrimazole]
  solubility at 72 h: < 100 µg/mL
